Measured values as given in publication PMC7824769, “Identification of Small Molecules Blocking the Pseudomonas aeruginosa Type III Secretion System Protein PcrV” (Biomolecules, 2021).
Where “and” joins values, the source holds several entries; their conditions need not be identical. Identical values can stand only once.

Tests used:
PcrV = PcrV (Pseudomonas aeruginosa, UniProt G3XD49); assay: SPR dose-response binding to immobilized PcrV (equilibrium analysis); conditions: for Binding to PcrV in SPR (in words): dose-response SPR
Description: The SPR screening was performed using the ProteOn^TM XPR36 Protein Interaction Array System (Bio-Rad Laboratories Inc., Hercules, CA, USA) with ProteOn GLH sensor chip (Bio-Rad Laboratories Inc., Hercules, CA, USA), and the results were analyzed with the ProteOn Manager software^TM (Bio-Rad Laboratories Inc., Hercules, CA, USA), Excel 2016 (Microsoft Office), and GraphPad Prism 7.04. All SPR experiments were performed at 25 °C. The multichannel module of the ProteOn system was in the vertical position during protein immobilization. The proteins were attached to the surface of a GLH sensor chip via amine coupling chemistry. A buffer scouting was performed to elucidate the optimal binding conditions of PcrV to the GLH sensor chip. First, channels 1–4 on the chip surface were activated using a 1:1 mixture of 40 mM 1-ethyl-3-(3-dimethylaminopropyl)carbodiimide hydrochloride (EDAC) (Bio-Rad Laboratories Inc., Hercules, CA, USA) and 10 mM N-hydroxysulfosuccinimide (sulfo-NHS, Bio-Rad Laboratories Inc., Hercules, CA, USA) for 300 s at 30 µL/min. Next, the proteins PcrV (33,398.6 Da, 6.37 mg/mL) was diluted in 10 mM NaOAc (pH 4, 4.5, and 5) to 0.05 mg/mL. PcrV was immobilized in channel 1–3 for 540 s at 30 µL/min. Channel 4 was flushed with 10 mM NaOAc (pH 5) for 540 s at 30 µL/min. As deactivating agent, a 1:1 mixture of 1 M ethanolamine and milli-Q filtered water was used. The deactivating solution was injected over all four channels for 300 s at 30 µL/min. Phosphate buffered saline with Tween (PBST; 10 mM phosphate buffer pH 7.4, 140 mM NaCl, 2.7 mM KCl, and 0.05% Tween 20) was used as the running buffer. The final amount of immobilized protein was measured in resonance units (RU) relative to the signal of the baseline prior activation. […] Immobilization of PcrV diluted in sodium acetate of pH 4.5 in one channel and of pH 5 in one channel were used in the beginning of the screening procedure (for plate 1–26). Since no difference was found between the two pH values, the PcrV protein was diluted in sodium acetate at pH 5 only (in two channels) from plate 27 and the rest of the screen. The immobilization procedure for the screening was performed as described above with the addition that the control protein carbonic anhydrase isoenzyme II from bovine erythrocytes (CAII, Sigma-Aldrich, article number 2522) was immobilized in one channel that was activated and deactivated as described above. CAII (1 mg/mL in PBS) was deactivated when diluted in 10 mM sodium acetate (pH 4) to 0.05 mg/mL. Immobilization level of the deactivated CAII was 18,000 RU. Deactivated CAII was used as a control protein according to the recommendations by the ProteOn manufacturer (Bio-Rad Laboratories Inc., Hercules, CA, USA). As running buffer, we employed PBS (pH 7.4, 0.05% Tween 20).
First, the PcrV protein was immobilized in two channels as described above while keeping a blank channel which was activated and deactivated as described above. The multichannel module of the ProteOn system was in horizontal position during the small molecule interaction studies. They were serially diluted to (400,) 200, 100, 50, 25, 12.5, 6.25, and (3.125); or 100, 50, 25, and 12.5 µM; or 100, 66.7, 44.4, 29.6, 19.7, and 13.2 µM in PBST (0.05% Tween 20) with a total concentration of 5% DMSO in 96-well plates. The running buffer was PBST (0.05% Tween 20) containing 5% DMSO. The analytes were injected at a flowrate of 100 µL/min, contact time was 60 s, and dissociation time was 60–120 s. Solvent correction was performed continuously during the experiments to account for bulk response of DMSO. The data was then baseline-aligned, processed by channel referencing with the blank channel, and solvent-corrected. The equilibrium dissociation constant (KD) values were determined from equilibrium analysis in the ProteOn Manager software^TM. Solubility problems frequently hampered KD determination since the small molecules could not always be dissolved in concentrations high enough to reach a plateau. […]

[1] = system: J774 cells infected with P. aeruginosa strain PAK; assay: cells; format: cell-based, Pseudomonas aeruginosa; conditions: Pseudomonas aeruginosa, uninfected control = 100%, infected control = 0%; for viability at 25 µM: J774, compound 25 µM, read-out: Viability Assay (% of Uninfected Control) 25 µM; for viability at 50 µM: J774, compound 50 µM, read-out: Viability Assay (% of Uninfected Control) 50 µM; for viability at 100 µM: J774, compound 100 µM, read-out: Viability Assay (% of Uninfected Control) 100 µM; for viability at 200 µM: J774, compound 200 µM
Description: (§1) The cell viability assay was performed essentially as described before. J774 cells were seeded in 96-well micro-titer plates (Nunc), 100 µL/well, to a final number of 50,000 cells/well in Dulbecco’s modified Eagle’s medium (DMEM) with glutamax (Merck) supplemented with 10% fetal calf serum (FCS) and 3 µg/mL gentamicin and incubated for 16-18 h. Overnight cultures of the P. aeruginosa strains PAK and PAKpcrV [10] were grown in Luria Broth (LB) on a rotary shaker at 220 rpm at 37 °C. Prior to infection, the bacteria were diluted 1:10 in DMEM + glutamax and incubated for 1 h at 37 °C (shaking). The J774 cells were washed once with PBS, then 30 µL of DMEM with glutamax and 10% FCS supplemented with the potential binders at concentrations of 50, 100, 200, and 400 µM were added to the wells in triplicates. The infection was initiated by adding 30 µL of the diluted bacterial solutions (where the OD600 had been diluted to 0.0008) to each well to initiate infection. This infection results in a final bacterial concentration of OD600 = 0.0004 and a multiplicities of infection (MOI) of approximately 8, with final concentrations of the compounds at 25, 50, 100, and 200 µM in 60 µL of DMEM + glutamax and 5% FCS. In the primary screening, the compounds were run at one concentration (100 µM) in duplicates. As an infection control, the wild-type strain PAK with 1% DMSO was added, and as a positive control, PAKpcrV with 1% DMSO was added into four wells each. After 3 h and 30 min, 10 µL of UptiBlue Viable Cell Counting Kit (Interchime, France) was added to all wells. The infection was followed under the light microscope and the fluorescence (excitation 535 nm and emission 595 nm) was measured at 4, 5, and 6 h in a microplate reader (Synergy™ H4, Biotek). The results were calculated as percentage of living cells compared to uninfected control, where the uninfected control was set to 100% living cells and the infected control was set to 0% living cells. As a control, compounds were added to uninfected cells in a parallel experiment and viability was calculated as above to screen for cell toxicity. A compound was considered toxic if the viability was <80% of the uninfected control after 6 h of incubation and if a visual change of cell morphology was observed by microscopy. Z’ was calculated for each plate to ensure good quality throughout the screening. Only results from plates with a Z’ > 0.4 were counted. Standard deviation was calculated with Gaussian approximation when appropriate and shown as error bars in Figure 3C and Figure 4A.
The T3SS is important for P. aeruginosa infection of eukaryotic cells, and a T3SS activator mutant or a mutant lacking the T3SS tip protein PcrV are not able to infect eukaryotic cells. The macrophage cell line, J774, was infected with the wild-type P. aeruginosa strain PAK, and the potential PcrV binders were added to the wells at a final concentration of 100 µM to screen for inhibition of infection. The T3SS-mediated cytotoxic effect on the eukaryotic cells was measured by using a viability staining method (Uptiblue, Interchim), and the results were measured after 4, 5, and 6 h of infection. The pcrV-mutant (PAKpcrV), which is not able to infect macrophages due to deletion of the PcrV protein, was used as a control.

uninfected J774 cells = assay: Cell toxicity control: compounds added to uninfected J774 cells; format: cell-based; conditions: 6 h incubation; for Toxicity towards eukaryotic cells, 200 µM: compound 200 µM; for Toxicity towards eukaryotic cells, 25 µM: compound 25 µM; for Toxicity towards eukaryotic cells, 50 µM: compound 50 µM; for Toxicity towards eukaryotic cells, 100 µM: compound 100 µM
Description: as §1

[2] = as above; format: cell-based; conditions: mouse, uninfected J774 macrophage cells; read-out: Eukaryotic cell toxicity (viability compared to DMSO control)
Description: as §1

[3] = KD ± standard error of KD (Table S1), single experiment, standard error from ProteOn Manager software
[4] = SPR KD, equilibrium analysis, mean ± SD of three or more independent experiments, individual values where n < 3, 25 °C, PBST 5% DMSO

Sequence of PcrV (G3XD49 entry or part of it): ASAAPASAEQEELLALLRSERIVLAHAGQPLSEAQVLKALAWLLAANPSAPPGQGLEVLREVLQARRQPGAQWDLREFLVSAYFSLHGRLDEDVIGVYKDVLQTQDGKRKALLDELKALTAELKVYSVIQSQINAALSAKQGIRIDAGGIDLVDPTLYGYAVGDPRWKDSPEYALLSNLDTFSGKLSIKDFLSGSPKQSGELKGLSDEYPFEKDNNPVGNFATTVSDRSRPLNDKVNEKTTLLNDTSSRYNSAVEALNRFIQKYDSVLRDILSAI

Row | SMILES | Kd (PcrV; [3]) [µM] | Kd (PcrV; [4]) | viability at 25 µM [1] [%] | viability at 50 µM [1] [%] | viability at 100 µM [1] [%] | viability at 200 µM [1] [%] | Toxicity towards eukaryotic cells, 200 µM (uninfected J774 cells) | Binding to PcrV in SPR (in words) (PcrV) | viability at 6 h [2] [%] | Toxicity towards eukaryotic cells, 25 µM (uninfected J774 cells) | Toxicity towards eukaryotic cells, 50 µM (uninfected J774 cells) | Toxicity towards eukaryotic cells, 100 µM (uninfected J774 cells)
1 | O=C(O)CCCOc1ccc(Cl)cc1Cl [Compound 1] | 124 ± 53 | < 127 µM and 95 µM | 14 | 12 | 21 | 16 | b (The compound is toxic^e towards eukaryotic cells, which might affect the results negatively) | – | – | – | – | –
2 | O=C(O)CCCOc1cc(Cl)ccc1Oc1ccc(Cl)cc1Cl [Compound 17] | – | 536 µM | 10 | 3 | 7 | -2 | b (The compound is toxic^e towards eukaryotic cells, which might affect the results negatively) | – | – | – | – | –
3 | Cc1c(Br)ccc(OCCCC(N)=O)c1C [Compound 18] | 32.9 ± 5 | 42 ± 12 µM | – | – | – | – | Toxic ^e (<80% viability compared to the DMSO control) | improved or similar binding affinity | < 80 | Toxic ^e (<80% viability compared to the DMSO control) | Toxic ^e (<80% viability compared to the DMSO control) | Toxic ^e (<80% viability compared to the DMSO control)
4 | CNC(=O)CCCOc1ccc(Br)c(C)c1C [Compound 19] | 177 ± 31.6 | 121 ± 45 µM | – | – | – | – | Toxic ^e (<80% viability compared to the DMSO control) | improved or similar binding affinity | < 80 | Toxic ^e (<80% viability compared to the DMSO control) | Toxic ^e (<80% viability compared to the DMSO control) | Toxic ^e (<80% viability compared to the DMSO control)
5 | Cc1c(Br)ccc(OCCCC(=O)N2CCC(C(=O)O)CC2)c1C [Compound 23] | 94.1 ± 31 | 94 µM and 103 µM | 17 | 18 | 20 | 9 | b (The compound is toxic^e towards eukaryotic cells, which might affect the results negatively) | – | – | – | – | –
6 | Cc1c(Br)ccc(OCCCC(=O)NS(=O)(=O)c2ccccc2)c1C [Compound 27] | 116 ± 18 | 118 ± 62 µM | 13 | 15 | 25 | -6 | b (The compound is toxic^e towards eukaryotic cells, which might affect the results negatively) | – | – | – | – | –
7 | Cc1c(Br)ccc(OCCCCO)c1C [Compound 28] | – | 127 µM and 351 µM | – | – | – | – | Toxic ^e (<80% viability compared to the DMSO control) | – | – | Toxic ^e (<80% viability compared to the DMSO control) | Toxic ^e (<80% viability compared to the DMSO control) | Toxic ^e (<80% viability compared to the DMSO control)
8 | Cc1c(Br)ccc(OCCCc2ccccc2C(=O)O)c1C [Compound 30] | 149 ± 27 | 113 ± 31 µM | 16 | 25 | 21 | -16 | b (The compound is toxic^e towards eukaryotic cells, which might affect the results negatively) | – | – | – | – | –
